In assay [1] the target is T1, PRMT5 (Homo sapiens, UniProt O14744).
T1 construct: purchased Viva (custom protein)
Description: PRMT5 IC50 assay in the presence of SAM as cofactor. It counts as biochemical. In outline:
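IC50 values were measured against human PRMT5 with SAM, with MTA, or with no cofactor. Ki was derived from IC50 as Ki=IC50/1.5 with SAM and Ki=IC50/13.5 with MTA, and the Ki(SAM)/Ki(MTA) ratio was then taken.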

The test system of assay [2] is HAP1 MTAP-deleted. Kind of assay: SDMA in-cell western assay, HAP1 MTAP-deleted cell line. Format: cell-based. The settings on record: for IC50: Homo sapiens, HAP1 MTAP-deleted cell line; for MTAP Intact/Deleted Ratio: IC50 ratio HAP1 MTAP-intact / HAP1 MTAP-deleted. In outline:
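In-cell western for SDMA marks; MTAP-deleted (null) HAP1 background; values given as IC50.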

Assay [3] addresses T1, PRMT5. Description: PRMT5 IC50 assay with no cofactor. Format: biochemical. In outline: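 Three cofactor conditions tested for PRMT5 inhibition: none, MTA and SAM, each giving an IC50. For conversion to Ki, the MTA-condition IC50 is divided by 13.5 and the SAM-condition IC50 by 1.5, and the two Ki values are expressed as a SAM/MTA ratio.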
For assay [4], the target named is T1, PRMT5. Kind of assay: PRMT5 IC50 assay in the presence of MTA as cofactor. Format: biochemical. To be noted: for IC50: PRMT5, MTA as cofactor. Summed up: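 Three cofactor conditions are run: SAM-bound, MTA-bound and cofactor-free enzyme. IC50 is read from each; for the SAM and MTA arms it is divided by 1.5 and 13.5 respectively to give Ki.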
The subject of assay [5] is HAP1 MTAP-intact. Description: SDMA in-cell western assay, HAP1 MTAP-intact cell line. Format: cell-based. To be noted: Homo sapiens. In outline: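 Using an MTAP-isogenic HAP1 cell pair, inhibition of SDMA formation is read by in-cell western and expressed as IC50. MTAP-selectivity is assigned where the ratio between lines reaches 3 fold or greater.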
Where [6] appears, read: ratio between Ki in the presence of SAM and Ki in the presence of MTA.
[7] abbreviates: ratio between the Ki in the presence of SAM and the Ki in the presence of MTA.

Molecules are shown by their SMILES.

The source of these data is patent US11986471B2, “Compounds and methods of use” (Tango Therapeutics, Inc., priority 2018, dated 2024).

T1 sequence (O14744 whole entry): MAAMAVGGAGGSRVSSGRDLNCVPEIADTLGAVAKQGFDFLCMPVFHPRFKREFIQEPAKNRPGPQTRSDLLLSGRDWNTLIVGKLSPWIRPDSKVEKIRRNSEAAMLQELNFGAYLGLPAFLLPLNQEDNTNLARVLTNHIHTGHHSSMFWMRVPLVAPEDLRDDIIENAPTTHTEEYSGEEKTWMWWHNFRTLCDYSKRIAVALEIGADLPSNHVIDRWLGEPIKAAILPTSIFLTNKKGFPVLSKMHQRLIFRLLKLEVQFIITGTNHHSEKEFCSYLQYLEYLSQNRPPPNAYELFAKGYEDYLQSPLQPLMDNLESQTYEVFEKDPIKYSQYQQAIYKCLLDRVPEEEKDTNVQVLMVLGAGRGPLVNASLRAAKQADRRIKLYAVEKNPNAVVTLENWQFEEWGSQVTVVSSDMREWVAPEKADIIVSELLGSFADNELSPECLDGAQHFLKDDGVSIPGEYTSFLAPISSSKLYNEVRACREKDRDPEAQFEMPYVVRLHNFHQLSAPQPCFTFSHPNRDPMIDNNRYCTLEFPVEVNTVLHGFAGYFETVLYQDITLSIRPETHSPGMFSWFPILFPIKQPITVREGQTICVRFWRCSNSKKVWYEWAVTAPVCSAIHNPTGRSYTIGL
T1 sequence (Q9BQA1 whole entry partner): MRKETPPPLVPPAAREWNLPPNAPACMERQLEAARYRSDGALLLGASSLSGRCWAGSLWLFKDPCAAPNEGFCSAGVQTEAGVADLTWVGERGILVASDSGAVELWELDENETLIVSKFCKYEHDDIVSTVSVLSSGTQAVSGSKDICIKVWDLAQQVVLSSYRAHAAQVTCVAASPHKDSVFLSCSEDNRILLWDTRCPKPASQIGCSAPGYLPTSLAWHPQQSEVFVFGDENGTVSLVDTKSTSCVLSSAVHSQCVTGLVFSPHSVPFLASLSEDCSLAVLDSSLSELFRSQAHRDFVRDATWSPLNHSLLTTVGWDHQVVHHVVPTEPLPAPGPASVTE

As to `Cc1c(OCc2cnco2)cc(F)c2c1CCN(C[C@@H](O)CNC(=O)c1ccnc(NC3CCC3)c1)C2` [Compound 341, 2-(cyclobutylamino)-N-[(2S)-3-[8-fluoro-5-methyl-6-(oxazol-5-ylmethoxy)-3,4-dihydro-1H-isoquinolin-2-yl]-2-hydroxy-propyl]pyridine-4-carboxamide], the IC50 (usually the point on the concentration scale where inhibition reaches its midpoint) was 50 to 500 nM in assay [1]; 1000 to 10000 nM in assay [2]; 500 to 5000 nM in assay [3] (read-out: No Co-factor IC50); 50 to 500 nM in assay [4]; no less than 10000 nM in assay [5]. The “MTAP Intact/Deleted Ratio” value in assay [2] was “B* (an IC50 ratio greater than or equal to 3 fold but lower than 10 fold between the IC50 in the HAP1 MTAP-intact cell line and the HAP1 MTAP-deleted cell line)”. Besides, the “SAM/MTA Ratio” value in assay [4] (setting [6]) is “A (a Ki ratio greater than or equal to 10 fold between the Ki in the presence of SAM and the Ki in the presence of MTA)”.

As to `CC(=O)N1CCC(Nc2cc(C(=O)NC[C@H](O)CN3CCc4cc(OCc5cn[nH]c5)ccc4C3)ncn2)CC1` [Compound 201, 6-[(1-acetyl-4-piperidyl)amino]-N-[(2S)-2-hydroxy-3-[6-(1H-pyrazol-4-ylmethoxy)-3,4-dihydro-1H-isoquinolin-2-yl]propyl]pyrimidine-4-carboxamide], the IC50 in assay [1] is 50 to 500 nM; in assay [2], less than 1000 nM; in assay [3] (read-out: No Co-factor IC50), 500 to 5000 nM; in assay [4], 50 to 500 nM; in assay [5], 1000 to 10000 nM. Besides, the “MTAP Intact/Deleted Ratio” value in assay [2] is “C* (an IC50 ratio of less than 3 fold between the IC50 in the HAP1 MTAP-intact cell line and the HAP1 MTAP-deleted cell line)”. In addition, in assay [4] (setting [6]), the “SAM/MTA Ratio” value is “A (a Ki ratio greater than or equal to 10 fold between the Ki in the presence of SAM and the Ki in the presence of MTA)”.

For the molecule `Cc1c(OCc2cnco2)ccc2c1CCN(C[C@@H](O)CNC(=O)c1cc(N[C@H]3CC[C@H](C(=O)N4CCCCC4)CC3)ncn1)C2` [Compound 589, N-[(2S)-2-hydroxy-3-{5-methyl-6-[(1,3-oxazol-5-yl)methoxy]-1,2,3,4-tetrahydroisoquinolin-2-yl}propyl]-6-{((1r,4r)-4-(piperidine-1-carbonyl)cyclohexyl]amino}pyrimidine-4-carboxamide], the IC50 is 50 to 500 nM in assay [1]; less than 1000 nM in assay [2]; 500 to 5000 nM in assay [3]; 50 to 500 nM in assay [4]; no less than 10000 nM in assay [5]. Besides, in assay [2], the “MTAP Intact/Deleted Ratio” value was “A* (an IC50 ratio greater than or equal to 10 fold between the IC50 in the HAP1 MTAP-intact cell line and the HAP1 MTAP-deleted cell line)”. For the same molecule, in assay [4] (setting [7]), the “SAM/MTA Ratio” value was “A (a Ki ratio greater than or equal to 10 fold between the Ki in the presence of SAM and the Ki in the presence of MTA)”.

Consider `Cc1ncoc1COc1cc2c(cc1F)CN(C[C@@H](O)CNC(=O)c1ccnc(Nc3cccnc3)c1)CC2` [Compound 600, N-[(2S)-3-[7-fluoro-6-[(4-methyloxazol-5-yl)methoxy]-3,4-dihydro-1H-isoquinolin-2-yl]-2-hydroxy-propyl]-2-(3-pyridylamino)pyridine-4-carboxamide], for which the IC50 in assay [1] is 50 to 500 nM; in assay [2], 1000 to 10000 nM; in assay [3], no less than 5000 nM; in assay [4], 50 to 500 nM; in assay [5], no less than 10000 nM. Further, the “MTAP Intact/Deleted Ratio” value in assay [2] was “B* (an IC50 ratio greater than or equal to 3 fold but lower than 10 fold between the IC50 in the HAP1 MTAP-intact cell line and the HAP1 MTAP-deleted cell line)”. Besides, the “SAM/MTA Ratio” value in assay [4] (setting [7]) is “A (a Ki ratio greater than or equal to 10 fold between the Ki in the presence of SAM and the Ki in the presence of MTA)”.
